Laboratory results taken from PubChem BioAssay AID198 (DTP/NCI, 2004).
Values joined by “and” are separate entries in the source; they are usually repeats but may differ in a detail not shown here. Equal values may be shown once. Inconclusive results and toxic doses are left out.

Tested on: B16 melanoma ip, C57BL/6 mice, median survival T/C
Assay: NCI In Vivo Anticancer Drug Screen. Data for tumor model B16 Melanoma (intraperitoneal) in C57BL/6 mice
Conditions: endpoint: median survival time, schedule: Q01DX009 (ip), higher = longer survival
Procedure: The antitumor activity of compounds was measured in mice bearing transplantable tumors. Survival or tumor size were measured and the results are expressed as the measurement made in the treated group (T) divided by the measurement made in the vehicle treated control group (C). The tumor model used in this assay is B16 Melanoma (intraperitoneal) in C57BL/6 mice

[1] = dose: 100.0 mg/kg/injection, vehicle: saline with Tween-80
[2] = dose: 200.0 mg/kg/injection, vehicle: saline with Tween-80
[3] = dose: 50.0 mg/kg/injection, vehicle: saline
[4] = dose: 100.0 mg/kg/injection, vehicle: saline
[5] = dose: 200.0 mg/kg/injection, vehicle: saline
[6] = dose: 125.0 mg/kg/injection, vehicle: saline
[7] = dose: 250.0 mg/kg/injection, vehicle: saline
[8] = dose: 500.0 mg/kg/injection, vehicle: saline
[9] = dose: 400.0 mg/kg/injection, vehicle: saline

C/C(=C\COc1ccc2ccc(=O)oc2c1)C1=CC(=O)C(C)(C)O1
T/C [1]: 94 % of control
T/C [2]: 100 % of control
T/C (dose: 400.0 mg/kg/injection, vehicle: saline with Tween-80): 94 % of control

CCSCCC(N)C(=O)O (stereo not given)
T/C [3]: 100 % of control
T/C [4]: 100 % of control
T/C [5]: 90 % of control

CC(=O)OC(C)(C)/C=C/C(=O)[C@](C)(O)[C@H]1[C@H](O)C[C@@]2(C)[C@@H]3CC=C4[C@@H](C[C@H](O)C(=O)C4(C)C)[C@]3(C)C(=O)C[C@]12C
T/C (dose: 0.25 mg/kg/injection, vehicle: saline with Tween-80): 92 % of control
T/C (dose: 0.5 mg/kg/injection, vehicle: saline with Tween-80): 100 % of control
T/C (dose: 1.0 mg/kg/injection, vehicle: saline with Tween-80): 92 % of control

CO[C@H]1/C=C/O[C@@]2(C)Oc3c(C)c(O)c4c(O)c(c(/C=N/N5CCN(C)CC5)c(O)c4c3C2=O)NC(=O)/C(C)=C\C=C\[C@H](C)[C@H](O)[C@@H](C)[C@@H](O)[C@@H](C)[C@H](OC(C)=O)[C@@H]1C
T/C [3]: 106 % of control
T/C [4]: 109 % of control
T/C [5]: 112 % of control

O=C(N[C@H](CO)[C@H](O)c1ccc([N+](=O)[O-])cc1)C(Cl)Cl
T/C (dose: 62.5 mg/kg/injection, vehicle: saline): 106 % of control and 114 % of control
T/C [6]: 106 % of control and 107 % of control
T/C [7]: 106 % of control and 117 % of control
T/C [8]: 106 % of control and 107 % of control

CN(C)c1nc(N(C)C)nc(N(C)C)n1
T/C (dose: 37.5 mg/kg/injection, vehicle: saline): 100 % of control
T/C (dose: 75.0 mg/kg/injection, vehicle: saline): 103 % of control
T/C (dose: 150.0 mg/kg/injection, vehicle: saline): 103 % of control
T/C (dose: 300.0 mg/kg/injection, vehicle: saline): 103 % of control

COc1cc([C@@H]2c3cc4c(cc3C[C@H]3COC(=O)[C@@H]32)OCO4)cc(OC)c1OC
T/C (dose: 6.25 mg/kg/injection, vehicle: saline with Tween-80): 110 % of control
T/C (dose: 12.5 mg/kg/injection, vehicle: saline with Tween-80): 117 % of control

O=NN(CCCl)C(=O)NCCCl
T/C (dose: 7.5 mg/kg/injection, vehicle: saline): 164 % of control and 213 % of control
T/C (dose: 15.0 mg/kg/injection, vehicle: saline): 121 % of control

[N-]=[N+]=CC(=O)NCC(=O)NN
T/C [3]: 107 % of control
T/C [4]: 110 % of control
T/C [5]: 121 % of control
T/C [9]: 117 % of control

Nc1nc(CCl)nc(Nc2ccccc2)n1
T/C [1]: 96 % of control
T/C [2]: 100 % of control

Cc1nc(N)sc1CCCl
T/C (dose: 10.0 mg/kg/injection, vehicle: saline sonified): 100 % of control
T/C (dose: 20.0 mg/kg/injection, vehicle: saline sonified): 107 % of control
T/C (dose: 40.0 mg/kg/injection, vehicle: saline sonified): 103 % of control
T/C (dose: 80.0 mg/kg/injection, vehicle: saline sonified): 107 % of control

COc1cc(/C=N\O)nc(-c2ccccn2)c1
T/C (dose: 25.0 mg/kg/injection, vehicle: saline): 100 % of control
T/C [3]: 106 % of control
T/C [4]: 93 % of control

NC(=O)Oc1cc(OC(N)=O)cc(N(CCCl)CCCl)c1
T/C (dose: 12.5 mg/kg/injection, vehicle: saline): 110 % of control
T/C [3]: 123 % of control

COc1cc2c(cc1OC)C(c1cc(OC)c(OC)c(OC)c1)C1(O)C(=O)OCC1(O)C2 (stereo not given)
T/C [3]: 93 % of control
T/C [4]: 93 % of control
T/C [5]: 86 % of control
T/C [9]: 86 % of control

CC1=C2C(=CC(C)(C)[C@@H]2O)C(=O)[C@](C)(O)C12CC2
T/C (dose: 0.17 mg/kg/injection, vehicle: saline): 110 % of control
T/C (dose: 0.26 mg/kg/injection, vehicle: saline): 106 % of control
T/C (dose: 0.4 mg/kg/injection, vehicle: saline): 106 % of control
T/C (dose: 0.6 mg/kg/injection, vehicle: saline): 106 % of control

CCOC(N)=O
T/C [6]: 100 % of control
T/C [7]: 107 % of control
T/C [8]: 100 % of control
